According to article PMC2644305 (Nature chemical biology, 2009):

Molecular target: FACL19 (Mycobacterium tuberculosis, UniProt P9WQ51)

Structure (SMILES): CC(C)(COP(=O)(O)OP(=O)(O)OC[C@H]1O[C@@H](n2cnc3c(N)ncnc32)[C@H](O)[C@@H]1OP(=O)(O)O)[C@@H](O)C(=O)NCCC(=O)NCCS [compound 1, CoASH]
- KM: Kinetic analysis of CoA formation by wild type FACL19 and FACL19i proteins

Structure (SMILES): Nc1ncnc2c1ncn2[C@@H]1O[C@H](COP(=O)(O)OP(=O)(O)OP(=O)(O)O)[C@@H](O)[C@H]1O [compound 3, ATP]
- KM: no significant change in KM was observed for ATP
